What was measured:
[1] = molecular target: T1, Multidrug and toxin extrusion protein 1 (Homo sapiens, UniProt Q96FL8); assay: Substrate activity at MATE1 (unknown origin) expressed in HEK293 cells assessed as ratio of uptake by the enantiomer with higher value to enantiomer with lower value at 2.5 uM measured after 1 min by HPLC-MS/MS analysis; format: cell-based; conditions: hek293, 1 min
T1 sequence (Q96FL8 whole entry): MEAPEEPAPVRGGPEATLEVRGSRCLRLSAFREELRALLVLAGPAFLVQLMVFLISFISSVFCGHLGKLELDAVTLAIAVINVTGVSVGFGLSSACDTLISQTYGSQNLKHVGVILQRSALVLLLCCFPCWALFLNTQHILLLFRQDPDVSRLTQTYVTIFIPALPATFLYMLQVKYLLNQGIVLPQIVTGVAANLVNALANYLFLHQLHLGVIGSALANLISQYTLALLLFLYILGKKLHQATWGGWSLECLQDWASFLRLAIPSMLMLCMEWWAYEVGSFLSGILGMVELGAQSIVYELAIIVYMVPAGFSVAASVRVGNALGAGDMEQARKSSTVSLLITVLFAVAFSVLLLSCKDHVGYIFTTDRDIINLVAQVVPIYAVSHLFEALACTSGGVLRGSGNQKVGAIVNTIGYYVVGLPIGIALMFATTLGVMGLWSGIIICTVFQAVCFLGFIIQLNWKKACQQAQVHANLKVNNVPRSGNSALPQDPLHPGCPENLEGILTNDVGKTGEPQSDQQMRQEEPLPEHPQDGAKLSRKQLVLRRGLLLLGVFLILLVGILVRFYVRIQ

[2] = molecular target: T2, Multidrug and toxin extrusion protein 2 (Homo sapiens, UniProt Q86VL8); assay: Substrate activity at MATE2-K (unknown origin) expressed in HEK293 cells assessed as ratio of uptake by the enantiomer with higher value to enantiomer with lower value at 2.5 uM measured after 1 min by HPLC-MS/MS analysis; format: cell-based; conditions: hek293, 1 min
T2 sequence (Q86VL8 whole entry): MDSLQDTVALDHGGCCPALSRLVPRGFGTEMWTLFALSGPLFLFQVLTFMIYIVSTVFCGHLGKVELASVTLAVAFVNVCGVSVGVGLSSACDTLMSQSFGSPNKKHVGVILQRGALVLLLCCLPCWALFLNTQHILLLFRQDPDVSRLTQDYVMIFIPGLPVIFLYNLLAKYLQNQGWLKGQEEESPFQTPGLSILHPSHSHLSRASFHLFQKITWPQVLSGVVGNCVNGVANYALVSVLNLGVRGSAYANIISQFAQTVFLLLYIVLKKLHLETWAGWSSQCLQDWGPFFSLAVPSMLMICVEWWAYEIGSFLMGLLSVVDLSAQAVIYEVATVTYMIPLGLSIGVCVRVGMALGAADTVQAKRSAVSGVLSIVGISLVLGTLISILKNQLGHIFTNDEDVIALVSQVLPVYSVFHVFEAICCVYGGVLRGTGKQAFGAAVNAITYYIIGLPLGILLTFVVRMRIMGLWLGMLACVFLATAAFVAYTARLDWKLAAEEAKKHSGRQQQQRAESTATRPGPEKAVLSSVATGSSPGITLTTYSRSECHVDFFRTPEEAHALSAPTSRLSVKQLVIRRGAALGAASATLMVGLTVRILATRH

[3] = molecular target: T1, Multidrug and toxin extrusion protein 1; assay: Substrate activity at MATE1 (unknown origin) expressed in HEK293 cells assessed as Vmax (maximum transport velocity) by HPLC-MS/MS analysis; format: cell-based
[4] = molecular target: T1, Multidrug and toxin extrusion protein 1; assay: Substrate activity at MATE1 (unknown origin) expressed in HEK293 cells assessed as intrinsic clearance by measuring ratio of Vmax (maximum transport velocity) over Km measured per mg of protein by HPLC-MS/MS analysis; format: cell-based
[5] = molecular target: T2, Multidrug and toxin extrusion protein 2; assay: Substrate activity at MATE2-K (unknown origin) expressed in HEK293 cells assessed as Vmax (maximum transport velocity) by HPLC-MS/MS analysis; format: cell-based
[6] = molecular target: T2, Multidrug and toxin extrusion protein 2; assay: Substrate activity at MATE2-K (unknown origin) expressed in HEK293 cells assessed as intrinsic clearance by measuring ratio of Vmax (maximum transport velocity) over Km measured per mg of protein by HPLC-MS/MS analysis; format: cell-based
[7] = molecular target: T3, MATE2-K (Homo sapiens, UniProt Q86VL8); assay: in vitro
T3 sequence (Q86VL8 whole entry): T2 sequence (Q86VL8 whole entry)

[8] = molecular target: T4, MATE1 (Homo sapiens, UniProt Q96FL8); assay: in vitro
T4 sequence (Q96FL8 whole entry): T1 sequence (Q96FL8 whole entry)

[9] = HEK293 cells expressing MATE2-K

Compound | Ratio [1] | Ratio [2] | Vmax [3] | uptake ratio at 1 min, 2.5 µM [7, 9] | uptake ratio at 1 min, 2.5 µM ([8]; HEK293 cells expressing MATE1) | further results
O=C(O[C@H]1C[N+]2(CCCOc3ccccc3)CCC1CC2)C(O)(c1cccs1)c1cccs1.[Br-] (mixture of isomers) [ACLIDINIUM BROMIDE] | > 1 | > 1 | – | – | – | –
CN(C)CCc1c[nH]c2ccc(CC3COC(=O)N3)cc12 (racemic) | – | – | 2992 pmol/min | – | – | CL [4]: 52.4 µL/min; Vmax [5]: 740 pmol/min; CL [6]: 32.1 µL/min
C#CCNC1CCc2ccccc21 (racemic) | > 1 | > 1 | – | – | – | –
CNCCC(Oc1ccccc1C)c1ccccc1 (racemic) | 1 | > 1 | – | – | – | –
CNCC(O)c1cccc(O)c1 (racemic) | > 1 | > 1 | – | – | – | –
NC1CONC1=O (racemic) | 1 | > 1 | – | – | – | –
CC(C)(C)NCC(O)c1ccc(O)c(CO)c1 (racemic) [ALBUTEROL] | > 1 | > 1 | – | > 2 | > 2 | –
CCN1CCCC1CNC(=O)c1cc(S(=O)(=O)CC)c(N)cc1OC (racemic) [AMISULPRIDE] | > 1 | > 1 | 238 pmol/min | > 2 | > 2 | CL [4]: 22.4 µL/min; CL [6]: 17.8 µL/min
COc1ccccc1OCCNCC(O)COc1cccc2[nH]c3ccccc3c12 (racemic) [CARVEDILOL] | 1 | > 1 | – | – | – | –
CN(C)CCCC1(c2ccc(F)cc2)OCc2cc(C#N)ccc21 (racemic) [CITALOPRAM] | > 1 | > 1 | – | – | – | –
Cc1cccc(C)c1OCC(C)N (racemic) [MEXILETINE] | > 1 | > 1 | – | – | – | uptake ratio at 1 min, 2.5 µM ([7]; hek293): < 2; uptake ratio at 1 min, 2.5 µM ([8]; hek293): < 2
COc1ccc(C(CN(C)C)C2(O)CCCCC2)cc1 (racemic) [VENLAFAXINE] | > 1 | > 1 | – | – | – | –
CC(CCc1ccc(O)cc1)NCCc1ccc(O)c(O)c1 (stereo not given) [DOBUTAMINE] | – | – | 2586 pmol/min | > 2 | > 2 | CL [4]: 29.2 µL/min; CL [6]: 5.71 µL/min
NCCc1ccc(O)c(O)c1 [DOPAMINE] | – | – | 10148 pmol/min | – | – | uptake ratio at 1 min, 2.5 µM ([7]; hek293): > 2; CL [4]: 19.2 µL/min; uptake ratio at 1 min, 2.5 µM ([8]; hek293): > 2; CL [6]: 1.27 µL/min
CN(C)CCC=C1c2ccccc2COc2ccccc21 [DOXEPIN] | 1 | 1 | – | – | – | –
Nc1nc(=O)n([C@@H]2CS[C@H](CO)O2)cc1F [EMTRICITABINE] | – | – | 4523 pmol/min | – | – | CL [4]: 4.56 µL/min; CL [6]: 3.02 µL/min
CNC[C@H](O)c1ccc(O)c(O)c1 [EPINEPHRINE] | – | – | 22773 pmol/min | – | – | uptake ratio at 1 min, 2.5 µM ([7]; hek293): > 2; CL [4]: 21.1 µL/min; uptake ratio at 1 min, 2.5 µM ([8]; hek293): > 2; CL [6]: 1.97 µL/min
C[C@H]1N=C(N(C)C)N=C(N)N1 [IMEGLIMIN] | – | – | 6242 pmol/min | > 2 | > 2 | CL [4]: 108 µL/min; CL [6]: 34.5 µL/min
C[N@+]1(CC2CC2)CC[C@]23c4c5ccc(O)c4O[C@H]2C(=O)CC[C@@]3(O)[C@H]1C5 [METHYLNALTREXONE] | – | – | 56 pmol/min | – | – | –

Compound | Ratio [1] | Ratio [2] | Vmax [3] | uptake ratio at 1 min, 2.5 µM [7, 9] | uptake ratio at 1 min, 2.5 µM ([8]; HEK293 cells expressing MATE1) | further results
Cc1ncc(CO)c(CO)c1O [PYRIDOXINE] | – | – | 10014 pmol/min | – | – | uptake ratio at 1 min, 2.5 µM ([7]; hek293): < 2; CL [4]: 2.37 µL/min; uptake ratio at 1 min, 2.5 µM ([8]; hek293): > 2; CL [6]: 1.2 µL/min
C#CCN[C@@H]1CCc2ccccc21 [RASAGILINE] | – | – | 194 pmol/min | – | – | –
CNCc1ccc(-c2[nH]c3cc(F)cc4c3c2CCNC4=O)cc1 [RUCAPARIB] | – | – | – | > 2 | > 2 | –
CCN(CC)CCNC(=O)c1ccc(NS(C)(=O)=O)cc1 [SEMATILIDE] | – | – | – | > 2 | > 2 | –
NCCc1c[nH]c2ccc(O)cc12 [SEROTONIN] | – | – | – | > 2 | > 2 | –
N[C@@H](CC(=O)N1CCn2c(nnc2C(F)(F)F)C1)Cc1cc(F)c(F)cc1F [SITAGLIPTIN] | – | – | – | > 2 | > 2 | –
CC(C)NCC(O)c1ccc(NS(C)(=O)=O)cc1 (stereo not given) [SOTALOL] | – | – | – | < 2 | > 2 | –
NCCCCNCCCN [SPERMIDINE] | – | – | – | < 2 | < 2 | –
NCCCNCCCCNCCCN [SPERMINE] | – | – | – | – | – | uptake ratio at 1 min, 2.5 µM ([7]; hek293): < 2; uptake ratio at 1 min, 2.5 µM ([8]; hek293): < 2
Cn1nnc2c(C(N)=O)ncn2c1=O [TEMOZOLOMIDE] | – | – | – | < 2 | < 2 | –
CC(C)(C)NCC(O)c1cc(O)cc(O)c1 (stereo not given) [TERBUTALINE] | – | – | – | > 2 | > 2 | –
CC[C@@]1(O)C(=O)OCc2c1cc1n(c2=O)Cc2cc3c(CN(C)C)c(O)ccc3nc2-1 [TOPOTECAN] | – | – | – | > 2 | > 2 | –
O=C(O[C@H]1C[C@H]2CC[C@@H](C1)[N+]21CCCC1)C(O)(c1ccccc1)c1ccccc1 [TROSPIUM] | – | – | – | < 2 | > 2 | –
C=CCN1CCCC1CNC(=O)c1cc(S(N)(=O)=O)cc(OC)c1OC (stereo not given) [VERALIPRIDE] | – | – | – | > 2 | > 2 | –
O=C(NCCNCC(O)COc1ccc(O)cc1)N1CCOCC1 (stereo not given) [XAMOTEROL] | – | – | – | > 2 | > 2 | –
Nc1ccn([C@H]2CC[C@@H](CO)O2)c(=O)n1 [ZALCITABINE] | – | – | 10171 pmol/min | – | – | CL [4]: 6.53 µL/min
O=c1ncccn1[C@@H]1O[C@H](CO)[C@@H](O)[C@H]1O [ZEBULARINE] | – | – | – | < 2 | < 2 | –
CN(C)CCc1c[nH]c2ccc(C[C@H]3COC(=O)N3)cc12 [ZOLMITRIPTAN] | – | – | 2992 pmol/min | – | – | CL [4]: 65.2 µL/min; CL [6]: 17.6 µL/min

Source: ChEMBL document CHEMBL6182944, “Substrate Specificity of the Organic Cation Transporters MATE1 and MATE2K and Functional Overlap with OCT1 and OCT2” (J Med Chem, 2025)
